Where “and” joins values, the source holds several entries; their conditions need not be identical. Equal values may be shown once.
Tests used:
Chymotrypsinogen A = Chymotrypsinogen A (Bos taurus, UniProt P00766); test: Binding affinity against alpha-chymotrypsin
[1] = biological target: Chymotrypsinogen A (Bos taurus) (UniProt P00766)

## COC(=O)[C@@H](Cc1ccccc1)[C@H]1CO1
Chymotrypsinogen A
  Ki: 9.95 mM and 3.23 mM
[1]
  Kiact: 5.24 min⁻¹

Reference: ChEMBL document CHEMBL1127766, “Stereochemical approach for enzyme inhibitor design” (Bioorg Med Chem Lett, 1994)
